In assay [1] the target is InhA.NAD+ (Mycobacterium tuberculosis, UniProt P9WGR1). The experiment in a line: SPR profiling of DEL screening hits, in the presence of 2 mM NAD+. The format is binding.
The target of assay [2] is InhA.NADH (Mycobacterium tuberculosis, UniProt P9WGR1). Kind of assay: SPR profiling of DEL screening hits, in the presence of 100 μM NADH. Type of assay: binding.
For assay [3], the target named is Apo InhA (Mycobacterium tuberculosis, UniProt P9WGR1). The experiment in a line: SPR profiling of DEL screening hits, compound injected alone. The format is binding.
For assay [4], the target named is T1, 15N-labeled NAD binding domain of PHGDH (Homo sapiens, UniProt O43175).
T1 sequence (O43175 93-298 limits assumed): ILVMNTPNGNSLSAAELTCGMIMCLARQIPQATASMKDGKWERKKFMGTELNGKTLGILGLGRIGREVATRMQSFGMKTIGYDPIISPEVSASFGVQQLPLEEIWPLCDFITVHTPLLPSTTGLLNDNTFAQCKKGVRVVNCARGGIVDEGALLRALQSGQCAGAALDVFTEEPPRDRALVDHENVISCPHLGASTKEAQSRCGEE
The experiment in a line: 2D NMR binding assay (1H15N-TROSY-HSQC chemical shift titration). The conditions noted are these: read-out: Kd (chemical shift change versus compound concentration). An excerpt:
The enzyme 3-phosphohydroxyglycerate dehydrogenase (PHGDH) utilises oxidised ninotinamide dinucleotide (NAD+) and catalyses the conversion of 3-phosphohydroxyglycerate to 3-phosphohydroxypyruvate in humans. The conversion of 3-phosphohydroxyglycerate to 3-phosphohydroxypyruvate is the first, and rate-limiting step, in synthesis of the amino acid serine. Studies have linked PHGDH to the in vivo tumourigenesis in aggressive breast tumours and functional genomics reveal that the serine synthesis pathway is essential in breast cancer. Thus, the druggability of the target was explored with small molecules. To this end a fragment screen of 384 fragments was undertaken using crystal cocktail soaking (mixtures of 4) against the NAD binding domain of PHGDH and 34 hits were identified. The binding affinities of these hits were determined in a 2D NMR binding assay using 15N-labeled NAD binding domain, Figure 6a. […] A simple analogue of an initial crystallography hit (compound 1), the 5-fluoroindole-2-carboxamide (compound 2) bound at a resolution of 1.95 Å in the adenine pocket of the NAD binding site (Figure 6b). The indole NH forms a water-bridged hydrogen bond network with Ser-211, and the 5-fluoro substituent fits nicely into a lipophilic cleft in the binding pocket. […]

The target in assay [5] is T2, PHGDH (Homo sapiens, UniProt O43175).
T2 sequence (O43175 1-533): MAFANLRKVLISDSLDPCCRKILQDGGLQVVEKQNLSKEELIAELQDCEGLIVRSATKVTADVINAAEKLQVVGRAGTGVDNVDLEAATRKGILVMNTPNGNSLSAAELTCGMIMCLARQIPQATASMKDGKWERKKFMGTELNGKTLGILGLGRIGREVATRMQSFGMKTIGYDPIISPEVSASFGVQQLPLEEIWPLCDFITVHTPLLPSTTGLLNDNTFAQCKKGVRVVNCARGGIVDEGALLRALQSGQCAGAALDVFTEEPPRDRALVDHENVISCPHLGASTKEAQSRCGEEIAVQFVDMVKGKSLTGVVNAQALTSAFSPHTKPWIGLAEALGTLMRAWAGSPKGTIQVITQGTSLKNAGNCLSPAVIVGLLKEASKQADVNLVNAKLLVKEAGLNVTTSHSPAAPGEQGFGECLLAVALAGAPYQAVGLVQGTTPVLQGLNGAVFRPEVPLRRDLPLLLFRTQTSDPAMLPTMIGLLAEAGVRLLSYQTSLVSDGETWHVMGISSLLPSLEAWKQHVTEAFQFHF
Kind of assay: Affinity for PHGDH during fragment optimisation (method not given). The format is binding. The source says: The enzyme 3-phosphohydroxyglycerate dehydrogenase (PHGDH) utilises oxidised ninotinamide dinucleotide (NAD+) and catalyses the conversion of 3-phosphohydroxyglycerate to 3-phosphohydroxypyruvate in humans. The conversion of 3-phosphohydroxyglycerate to 3-phosphohydroxypyruvate is the first, and rate-limiting step, in synthesis of the amino acid serine. Studies have linked PHGDH to the in vivo tumourigenesis in aggressive breast tumours and functional genomics reveal that the serine synthesis pathway is essential in breast cancer. Thus, the druggability of the target was explored with small molecules. […] The binding affinities of these hits were determined in a 2D NMR binding assay using 15N-labeled NAD binding domain, Figure 6a. […]
Considering this knowledge, a 1D NMR competition assay with NAD+ as the reference compound was developed. […] It is noteworthy that fragments and many of the synthesised analogues had no measurable activity in the human PHGDH protein NAD fluorescence intensity biochemical assay. Whilst the biophysical methods allowed a wide dynamic range of weak mM to sub μM affinities be determined, the biochemical assay could only be used to provide affinities that could drive SAR once those affinities were sub micromolar. […]

Assay [6] addresses T3, full length PHGDH (Homo sapiens, UniProt O43175).
T3 sequence (O43175 1-533): T2 sequence (O43175 1-533)
Kind of assay: SPR titration, steady state fit. The format is binding. An excerpt:
Considering this knowledge, a 1D NMR competition assay with NAD+ as the reference compound was developed. This screen employed the more physiologically relevant full length PHGDH protein, to provide continuity for affinity measurement during the subsequent analoguing phase. It is noteworthy that fragments and many of the synthesised analogues had no measurable activity in the human PHGDH protein NAD fluorescence intensity biochemical assay. Whilst the biophysical methods allowed a wide dynamic range of weak mM to sub μM affinities be determined, the biochemical assay could only be used to provide affinities that could drive SAR once those affinities were sub micromolar. In summary, a fragment crystal cocktail screen, supported with biophysical affinity measurements, provided the first known small molecule known nanomolar inhibitors of PHGDH and valuable tools for interrogating the biology of this target.
(b) SPR titration data for NADH binding to full length PHGDH, Kd = 0.4 ± 0.03 μM determined from a steady state fit, with the kinetic fit curve shown in the inset. […] No label is printed directly beside the Kd values; 'Spot 1' and 'Spot 2' are printed at the top of the plots.

The target in assay [7] is T3, full length PHGDH. Kind of assay: ITC titration. The format is binding.
Assay [8] deals with T4, NAD binding domain of PHGDH (Homo sapiens, UniProt O43175).
T4 sequence (O43175 93-298 limits assumed): T1 sequence (O43175 93-298 limits assumed)
Kind of assay: SPR titration, steady state fit.

Each structure is given as a SMILES string.

InhA.NADH, sequence (P9WGR1 whole entry, looked up): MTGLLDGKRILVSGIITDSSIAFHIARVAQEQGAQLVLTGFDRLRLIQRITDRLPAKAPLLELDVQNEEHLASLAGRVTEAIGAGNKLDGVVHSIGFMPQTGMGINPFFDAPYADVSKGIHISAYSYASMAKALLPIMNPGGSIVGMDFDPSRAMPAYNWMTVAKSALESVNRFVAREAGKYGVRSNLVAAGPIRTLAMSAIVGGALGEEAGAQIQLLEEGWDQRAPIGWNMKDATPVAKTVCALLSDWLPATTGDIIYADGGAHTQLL
Apo InhA, sequence (P9WGR1 whole entry, looked up, the tested form may be a part): as the sequence (P9WGR1 whole entry, looked up) above
InhA.NAD+, sequence (P9WGR1 whole entry, looked up): as above

Turning to `Cc1c(CC(=O)NC2CCC(CC(=O)N3CCN(CC(=O)CN)C(=O)C3Cc3ccccc3)CC2)sc2ccccc12` (centres unmarked) [Compound 6], the results for the Kd in assay [1], in assay [2] and in assay [3] were 13.4 ± 4.3 µM, 0.3 ± 0.2 µM and above 100 µM, respectively.
Turning to `NC(=O)c1cc2cc(F)ccc2[nH]1` [Compound 2, 5-fluoroindole-2-carboxamide], the Kd in assay [4] turned out to be 980 ± 60 µM.
Consider `CCCc1cc(C(=O)N2CCC(C(=O)NC(CC(=O)NC)c3cccc(C(F)(F)F)c3)(c3ccc(Br)cc3)CC2)n(C)n1` (centres unmarked) [Compound 11], for which the Kd in assay [1] turned out to be 0.3 ± 0.1 µM; in assay [2] it was 5 ± 1.2 µM; in assay [3], 12.4 ± 1.4 µM.
Regarding `CNC(=O)CN(C(=O)Cc1ccc(-n2cccn2)cc1)C1CCN(c2ccccn2)CC1` [Compound 9], the Kd in assay [1] is above 100 µM; in assay [2] it was 36.8 ± 3.3 µM; in assay [3], above 100 µM.
As for `CNC(=O)CN(Cc1ccc(C)cc1)C(=O)C[C@H]1CC[C@H](CC(=O)c2nnn(Cc3ccccc3)c2C)CC1` [Compound 7], the Kd was 46.7 ± 11.6 µM in assay [1], 0.09 ± 0.06 µM in assay [2] and above 100 µM in assay [3].
Regarding `COc1cc2[nH]c(C(=O)N[C@H](CO)c3ccccc3)cc2cc1Cl` [Compound 4], the affinity result in assay [5] (method not stated) is given as “single digit”.
As to `NC(=O)C1=CN([C@@H]2O[C@H](COP(=O)(O)OP(=O)(O)OC[C@H]3O[C@@H](n4cnc5c(N)ncnc54)[C@H](O)[C@@H]3O)[C@@H](O)[C@H]2O)C=CC1` [NADH], the Kd came to 0.4 ± 0.03 µM in assay [6] (SPR steady state fit, full length PHGDH); 0.33 ± 0.08 µM in assay [7]; 6.7 ± 0.5 µM in assay [8]. In addition, the “fold tighter binding to the full-length protein than to the NAD binding domain” value in assay [6] (combination of ITC and SPR measurements) is on record as “approximately 20 fold”. Besides, in assay [7], the “N (stoichiometry)” value was found to be 0.78 ± 0.01.
Take `CNC(=O)C1CCCN1C(=O)CC1CCC(NC(=O)C2CC(c3ccccc3)CN2)CC1` (centres unmarked) [Compound 12]: the Kd in assay [1] was above 100 µM; in assay [2] it was 6.3 ± 2.6 µM; in assay [3], above 100 µM.
For the compound `CNC(=O)C1CC(NC(=O)C(NC(=O)c2ccc(Cn3cccn3)cc2)[C@@H](C)OC(C)(C)C)CN1C(=O)c1ccccc1` (some centres unmarked) [Compound 10], the Kd in assay [1] is 49 ± 2.9 µM; in assay [2], 0.06 ± 0.03 µM; in assay [3], above 100 µM.
Regarding `O=C(O)c1ccc([C@@H](CO)NC(=O)c2cc3cc(Cl)ccc3[nH]2)cc1` [Compound 5], the “fold improvement in affinity” value in assay [5] (relative to compound 4) is given as 10 fold.
Take `CNC(=O)c1cnc(NC2CCN(c3ccccn3)CC2)c(NCc2ccc(F)c(Oc3ccccc3)c2)c1` [Compound 8]: the Kd in assay [1] was above 100 µM; in assay [2], 0.3 ± 0.1 µM; in assay [3] it was above 100 µM.
